Type in all cases: functional
The test system of experiment [1] is Enterobacter cloacae. Put plainly: Antibacterial activity against Enterobacter cloacae EB5.
Experiment [2] concerns Escherichia coli. Put plainly: Antibacterial activity against Escherichia coli TEM.
Experiment [3] has as its system Klebsiella pneumoniae. Put plainly: microbe, parasite or virus in culture.
Description: Antibacterial activity against Klebsiella pneumoniae 1082E
Experiment [4] deals with Pseudomonas aeruginosa. Put plainly: In vivo efficacy against Pseudomonas aeruginosa infected mice treated at 1 hr and 5 hr post infection.
For experiment [5], the system named is Staphylococcus aureus. Put plainly: In vivo efficacy against Staphylococcus aureus infected mice treated at 1 hr and 5 hr post infection.
Experiment [6] concerns Escherichia coli. Nature of the experiment: In vivo efficacy against Escherichia coli infected mice treated at 1 hr and 5 hr post infection.
For experiment [7], the system named is Pseudomonas aeruginosa. Put plainly: Antibacterial activity against Pseudomonas aeruginosa X528.
In experiment [8] the test system is Staphylococcus aureus. Put plainly: Antibacterial activity against penicillin G susceptible Staphylococcus aureus.
For experiment [9], the system named is Serratia marcescens. Put plainly: Antibacterial activity against Serratia marcescens SE3.
Experiment [10] deals with Enterobacter cloacae. Nature of the experiment: Antibacterial activity against Enterobacter cloacae 265A.
Experiment [11] deals with Escherichia coli. Put plainly: Antibacterial activity against Escherichia coli EC14.
The subject of experiment [12] is Klebsiella pneumoniae. Put plainly: Antibacterial activity against Klebsiella pneumoniae X26.
Experiment [13] has as its system Escherichia coli. Put plainly: In vivo efficacy against Escherichia coli infections in mice.
The subject of experiment [14] is Pseudomonas aeruginosa. Put plainly: In vivo efficacy against Pseudomonas aeruginosa infections in mice.
Experiment [15] concerns Staphylococcus aureus. Nature of the experiment: In vivo efficacy against Staphylococcus aureus infections in mice.
In experiment [16] the test system is Pseudomonas aeruginosa. Put plainly: Antibacterial activity against Pseudomonas aeruginosa PS18.
Experiment [17] has as its system Staphylococcus aureus. Put plainly: Antibacterial activity against penicillin G resistance Staphylococcus aureus.
Experiment [18] deals with Streptococcus pneumoniae. Nature of the experiment: Antibacterial activity against Streptococcus pneumoniae.
Experiment [19] relates to Streptococcus pyogenes. Nature of the experiment: Antibacterial activity against Streptococcus pyogenes.
In experiment [20] the test system is Enterococcus faecium. Put plainly: Antibacterial activity against Enterococcus faecium.
Setting [21] is: Enterobacter cloacae, read-out: MIC.
Setting [22] is: Escherichia coli, read-out: MIC.
The mark [23] stands for this setting: Pseudomonas aeruginosa, read-out: ED50.
[24] abbreviates: Escherichia coli, read-out: ED50.
[25] abbreviates: Pseudomonas aeruginosa, read-out: MIC.
Where [26] appears, read: Streptococcus pneumoniae, read-out: MIC.
Setting [27] is: Streptococcus pyogenes, read-out: MIC.
[28] abbreviates: Enterococcus faecium, read-out: MIC.
[29] abbreviates: Klebsiella pneumoniae, read-out: MIC.
Where [30] appears, read: Staphylococcus aureus, read-out: ED50.
Setting [31] is: Staphylococcus aureus, read-out: MIC.
[32] abbreviates: Serratia marcescens, read-out: MIC.

This passage reports MIC and ED50 results from ChEMBL document CHEMBL1124865, “Synthesis and biological evaluation of a series of parenteral 3'-quaternary ammonium cephalosporins” (J Med Chem, 1990).

Each structure is given as a SMILES string. Converted amounts (≈) assume the structure as drawn.

The term ED50 denotes the midpoint of the dose-response relation. Take `CO/N=C(\C(=O)N[C@@H]1C(=O)N2C(C(=O)[O-])=C(C[n+]3ccc(CC(=O)NO)cc3)CS[C@H]12)c1csc(N)n1` (stereo in doubt; 8): the MIC in experiment [1] stood at 0.5 µg/mL (≈ 0.913 µM); in experiment [2] it was 0.06 µg/mL (≈ 0.11 µM); in experiment [3], 16 µg/mL (≈ 29.2 µM); in [7] it was 32 µg/mL (≈ 58.4 µM); in [8], 4 µg/mL (≈ 7.3 µM); in experiment [9] it was 0.5 µg/mL (≈ 0.913 µM). Further, the median effective dose (ED50) was greater than 40 mg/kg in experiment [4], 2.5 mg/kg in [5] and 0.82 mg/kg in [6].

Regarding `CO/N=C(\C(=O)N[C@@H]1C(=O)N2C(C(=O)[O-])=C(C[n+]3cccc(CC(=O)O)c3)CS[C@H]12)c1csc(N)n1` (stereo in doubt; 14), the MIC in experiment [10] came to 16 µg/mL (≈ 30 µM); in experiment [11] it was 0.06 µg/mL (≈ 0.113 µM); in experiment [1] (setting [21]) it was 0.25 µg/mL (≈ 0.469 µM); in experiment [2] (setting [22]), 0.06 µg/mL (≈ 0.113 µM); in experiment [3], 16 µg/mL (≈ 30 µM); in experiment [12] it was 0.03 µg/mL (≈ 0.0563 µM). The MIC in experiment [13] (setting [22]) amounted to 0.06 µg/mL (≈ 0.113 µM); in experiment [14] (setting [25]), 8 µg/mL (≈ 15 µM); in [15] it was 1 µg/mL (≈ 1.88 µM); in [7], 2 µg/mL (≈ 3.76 µM); in [16], 8 µg/mL (≈ 15 µM); in experiment [17], 2 µg/mL (≈ 3.76 µM). For the same compound, the MIC in experiment [8] was 1 µg/mL (≈ 1.88 µM); in experiment [18] (setting [26]), 0.015 µg/mL (≈ 0.0282 µM); in experiment [9] it was 0.125 µg/mL (≈ 0.235 µM); in experiment [19] (setting [27]) it was 0.015 µg/mL (≈ 0.0282 µM); in experiment [20] (setting [28]), greater than 128 µg/mL. For the same compound, the 50% effective dose (ED50) in experiment [4] (setting [23]) was 20 mg/kg; in [5], 1.4 mg/kg; in experiment [6] (setting [24]), 0.09 mg/kg.

On to `CO/N=C(\C(=O)N[C@@H]1C(=O)N2C(C(=O)[O-])=C(C[n+]3cccc(CC(=O)O)c3)CS[C@H]12)c1csc(N)n1` (stereo in doubt; 17), for which the MIC in experiment [11] was less than 0.008 µg/mL; in experiment [1], 0.25 µg/mL (≈ 0.469 µM); in experiment [3] it was 32 µg/mL (≈ 60.1 µM); in experiment [13] it was 0.03 µg/mL (≈ 0.0563 µM); in experiment [15], 8 µg/mL (≈ 15 µM); in [17], 16 µg/mL (≈ 30 µM). Also, the MIC stood at 8 µg/mL (≈ 15 µM) in [8], 0.03 µg/mL (≈ 0.0563 µM) in [18], 0.06 µg/mL (≈ 0.113 µM) in experiment [9] and 0.03 µg/mL (≈ 0.0563 µM) in experiment [19]. The results for the ED50 in experiment [5] and in [6] were 6.2 mg/kg and less than 0.16 mg/kg, respectively.

For the compound `CO/N=C(\C(=O)N[C@@H]1C(=O)N2C(C(=O)[O-])=C(C[n+]3ccc(CC(=O)NO)cc3)CS[C@H]12)c1csc(N)n1` (stereo in doubt; 20), the MIC in experiment [10] was found to be 64 µg/mL (≈ 117 µM); in [3], 8 µg/mL (≈ 14.6 µM); in experiment [13] it was 0.06 µg/mL (≈ 0.11 µM); in [14], 8 µg/mL (≈ 14.6 µM); in experiment [16], 16 µg/mL (≈ 29.2 µM); in [17], 16 µg/mL (≈ 29.2 µM). Further, the MIC in experiment [8] was 8 µg/mL (≈ 14.6 µM); in [18], 0.06 µg/mL (≈ 0.11 µM); in experiment [9], 0.25 µg/mL (≈ 0.457 µM); in experiment [19], 0.06 µg/mL (≈ 0.11 µM); in experiment [20], greater than 128 µg/mL. Besides, the median effective dose (ED50) was 20 mg/kg in [4], 1.4 mg/kg in [5] and less than 0.03 mg/kg in [6].

With `CCC(CC)c1cc[n+](CC2=C(C(=O)[O-])N3C(=O)[C@@H](NC(=O)/C(=N\OC)c4csc(N)n4)[C@H]3SC2)cc1`, the MIC was 16 µg/mL (≈ 29.4 µM) in experiment [10] (setting [21]); 0.125 µg/mL (≈ 0.23 µM) in experiment [11] (setting [22]); 0.5 µg/mL (≈ 0.918 µM) in [1] (setting [21]); 0.06 µg/mL (≈ 0.11 µM) in experiment [2] (setting [22]); 8 µg/mL (≈ 14.7 µM) in [3] (setting [29]); 0.03 µg/mL (≈ 0.0551 µM) in experiment [12] (setting [29]). Moreover, the MIC in experiment [13] (setting [22]) is 0.125 µg/mL (≈ 0.23 µM); in experiment [14] (setting [25]), 64 µg/mL (≈ 118 µM); in experiment [15] (setting [31]), 4 µg/mL (≈ 7.34 µM); in experiment [7] (setting [25]), 16 µg/mL (≈ 29.4 µM); in [16] (setting [25]) it was 64 µg/mL (≈ 118 µM); in [17] (setting [31]), 4 µg/mL (≈ 7.34 µM). In addition, the MIC in experiment [8] (setting [31]) was 2 µg/mL (≈ 3.67 µM); in experiment [18] (setting [26]), 0.015 µg/mL (≈ 0.0275 µM); in experiment [9] (setting [32]), 0.5 µg/mL (≈ 0.918 µM); in [19] (setting [27]), less than 0.008 µg/mL; in experiment [20] (setting [28]) it was greater than 128 µg/mL. The ED50 in [4] (setting [23]) came out at 11 mg/kg; in experiment [5] (setting [30]), 2.5 mg/kg; in [6] (setting [24]), 0.5 mg/kg.

As for `CO/N=C(\C(=O)N[C@@H]1C(=O)N2C(C(=O)[O-])=C(C[n+]3ccccc3C)CS[C@H]12)c1csc(N)n1`, the MIC in experiment [10] (setting [21]) was found to be 128 µg/mL (≈ 262 µM); in experiment [11] (setting [22]), 0.25 µg/mL (≈ 0.512 µM); in experiment [1] (setting [21]), 2 µg/mL (≈ 4.09 µM); in experiment [2] (setting [22]), 0.5 µg/mL (≈ 1.02 µM); in experiment [3] (setting [29]), 32 µg/mL (≈ 65.5 µM); in [12] (setting [29]) it was 0.25 µg/mL (≈ 0.512 µM). Further, the MIC in [13] (setting [22]) was 0.06 µg/mL (≈ 0.123 µM); in experiment [14] (setting [25]), 64 µg/mL (≈ 131 µM); in experiment [15] (setting [31]) it was 2 µg/mL (≈ 4.09 µM); in experiment [7] (setting [25]), 32 µg/mL (≈ 65.5 µM); in experiment [16] (setting [25]) it was 64 µg/mL (≈ 131 µM); in experiment [17] (setting [31]) it was 16 µg/mL (≈ 32.7 µM). In addition, the MIC in experiment [8] (setting [31]) was 16 µg/mL (≈ 32.7 µM); in experiment [18] (setting [26]) it was 0.5 µg/mL (≈ 1.02 µM); in experiment [9] (setting [32]), 1 µg/mL (≈ 2.05 µM); in experiment [19] (setting [27]), 0.25 µg/mL (≈ 0.512 µM); in experiment [20] (setting [28]), greater than 128 µg/mL. Also, the values for the 50% effective dose (ED50) in experiment [4] (setting [23]), in experiment [5] (setting [30]) and in experiment [6] (setting [24]) were 12 mg/kg, 2.7 mg/kg and less than 0.16 mg/kg, respectively.
